# Laboratory results: a melting point compilation (Tetko et al.; mined from patent text by program, amines drawn as free bases though some values may be those of a salt)
row,SMILES,melting point [°C]
1,O=C(O)C1CCc2c(c3ccccc3n2Cc2ccccc2)C1 (stereo not given),195 to 196
2,CC(=O)OCCOc1ccc(OCCOC(C)=O)c(N)c1,67.5 to 69.5
3,Nc1csc2c([N+](=O)[O-])cccc12,188 to 191
4,C=CCc1cc(OC)c(OC)cc1Cc1cnc(N)nc1N,170 to 171
5,COc1ccccc1-c1ccc(C(=O)O)cc1,250 to 253
6,Cc1cccc(C)c1C#CCOCCn1cnc2c(N)nc3ccccc3c21,200 to 201
7,O=Cc1ccn2c1CCC2,58
8,CCN(C(=O)NC)c1nnc(C(C)(C)C)s1,112
9,CCN(CC)c1ccc(C=CC2=NC(C#N)=C(C#N)N=CC2)cc1,> 300
10,CCCCS(=O)(=O)C1(CCCCN2CCC(N3Cc4ccccc4C3=O)CC2)c2ccccc2-c2ccccc21,130 to 132
11,Cc1c(C(=O)c2cnn(C(C)(C)C)c2O)ccc(S(C)(=O)=O)c1I,171 to 172
12,CC(=O)SC(CC(=O)c1cccc(Cl)c1)C(=O)O (stereo not given),85 to 86
13,CCCCOC(=O)C(COC(C)(C)C)NC(=O)c1ccc2c(Cl)cnc(NC(=N)N)c2c1 (racemic),215 to 219
14,CCCCNc1c(N)c(N)nc(C)c1C(=O)OCC,82 to 83
15,COc1cc2c(=O)n(CCCc3ccccc3)c3cc(OC)c(OC)cc3c2cc1OC,209 to 211
16,COCOc1ccccc1-c1cc(-c2ccc(OC)c(C(=O)OC)c2)c(C#N)c(NC(=O)c2cccs2)n1,105 to 106
17,Cn1cc(Br)nc(Nc2ccc3c(c2)CCNC3)c1=O,170 to 171
18,CC(C)(C)P(c1cccc2ccccc12)C(C)(C)C,95 to 97
19,COC(=O)c1ccc(-c2cc(C)n(Cc3ccccc3)n2)o1,65 to 66
20,N#Cc1cc(NC(=O)c2cc3ccccc3s2)ccc1OC1CCN(Cc2ccccc2)CC1,206
21,COc1cccc2c(Oc3ccccc3)cccc12,65 to 66
22,CON=c1cc(C)c2ccccc2[nH]c1=O,190 to 193
23,CC(C)Oc1ccc(CCC(=O)NS(=O)(=O)c2ccccc2)c(Oc2ncc(C(F)(F)F)cc2Cl)c1,129 to 130
24,COc1ccc2c(c1)CN(C(=O)NO)N=C2Cc1c(Cl)cncc1Cl,155 to 158
25,CCC(=O)C(=CN(C)C)Oc1cc(Cl)cc(Cl)c1,96 to 97

row,SMILES,melting point [°C]
1,COc1ccc(NC(=O)C(F)F)cn1,75 to 78
2,CC(C)c1nc2[nH]c(=O)[nH]c(=O)c2c(-c2ccc(F)cc2)c1/C=C/C=O,255
3,C1=C(c2nc(COc3ccc(CCCn4ccnc4)cc3)co2)CCc2ccccc21,99 to 100
4,COc1ccc(Br)c(C=O)c1OC,92 to 93
5,COc1cc(-c2ccccc2)cc(-c2ccccc2)c1,93 to 94
6,C=CC(=O)Oc1ccc(-c2cccc(-c3ccc(OC(=O)C=C)cc3)c2)cc1,106
7,Cc1nc[nH]c1CSCCNC(=C[N+](=O)[O-])NCCSCc1nccs1,119 to 120
8,CCOC(=O)NC(=O)C(C#N)=CNc1cccc(F)c1,170 to 171
9,COC(=O)CCCc1cc2cc(C(F)(F)F)ccc2n1S(=O)(=O)c1ccc2nc(C)sc2c1,163 to 168
10,FC(F)Sc1nnc(-c2ccccn2)s1,90 to 92
11,O=C(O)C(Cc1ccc(Cl)cc1Cl)c1c(Cl)cccc1Cl (stereo not given),220 to 222
12,Cc1cc(OC(F)F)cc(NC(=O)NS(=O)(=O)c2ccccc2Cl)n1,169 to 170
13,CCCCc1ncc(CC(=O)NCC(=O)O)n1Cc1ccccc1Cl,84 to 88
14,CC(C)c1cc2c(c(O)c1O)C1(C(=O)O)CCCC(C)(C)C1CC2 (stereo not given),193 to 199
15,COc1ccnc(CCc2nc3cc(-c4ccoc4)cnc3[nH]2)c1,193 to 194
16,CCCCOC(=O)NC1(c2ccccc2Cl)CCCCC1=O (stereo not given),130 to 132
17,COc1nc(Br)c(C)nc1NS(=O)(=O)c1cccc(Cl)c1Cl,146 to 148
18,CCOc1cc(Cn2[nH]c(N)cc2=O)ccc1Cl,143
19,Cc1c(-c2ccnn2-c2ccc(C#N)cc2)nc(C(N)=O)c(=O)n1-c1cccc(C(F)(F)F)c1,264
20,N#Cc1c[nH]nc1-c1ccccc1Cl,160
21,O=C(O)c1ccc(Cn2ccc(OCc3ccccc3)c(Br)c2=O)cc1,251 to 256
22,CCCc1c(OCCCS(=O)(=O)c2nc3ccc(C(=O)O)cc3[nH]2)ccc(C(C)=O)c1O,212 to 215
23,N#Cc1c(F)cc2c(c1Cl)N1CCC[C@@H](NC(=O)C(F)(F)F)[C@@H]1c1ccc(F)cc1O2,174 to 175
24,CCCCc1nc(-c2ccco2)c2ncn(Cc3ccc(OC)cc3)c2n1,103
25,CC(C)CC(NC(=O)c1cc(O)c2c(c1)C(=O)c1cccc(O)c1C2=O)C(=O)O (stereo not given),204 to 206
